Our source for the TGI values is PubChem BioAssay (NCI).

Structures are written as SMILES.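 Briefly, cells in 96-well plates were exposed to five compound concentrations for 48 h, and endpoints were estimated by linear interpolation. Definition used: TGI = concentration required for complete inhibition of growth.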

Holding throughout (experiment): NCI anticancer screen, dose series, 48 h
Assay [1] concerns 786-0 renal.
Assay [2] has as its system A549 NSCLC.
Assay [3] concerns HCT-15 colon.
In assay [4] the test system is HS 578T breast.
The subject of assay [5] is IGROV1 ovarian.
The subject of assay [6] is K-562 leukemia.
In assay [7] the test system is MALME-3M melanoma.
The subject of assay [8] is MDA-MB-231 breast.
For assay [9], the system named is MDA-MB-435.
The subject of assay [10] is NCI-H23 lung.
For assay [11], the system named is NCI-H522 lung.
Assay [12] relates to NCI/ADR-RES ovarian.
For assay [13], the system named is OVCAR-4 ovarian.
The test system of assay [14] is SN12C renal.
Assay [15] has as its system SR leukemia.
Assay [16] deals with SW-620 colon.
Assay [17] has as its system TK-10 renal.
Assay [18] relates to UACC-257 melanoma.
Assay [19] has as its system OVCAR-3 ovarian.

`C=CCNC(=O)NC(=O)CSC1=NNC2(C(=O)N1)c1ccccc1-c1ccccc12`: the TGI in [1], in [2], in assay [3], in assay [4], in assay [5] and in [6] was > 10 µM throughout. Further, the TGI in [7], in [8], in assay [9], in [10], in assay [11] and in assay [12] was > 10 µM in each case. Further, the TGI in [13], in [14], in assay [15], in assay [16], in assay [17] and in assay [18] was > 10 µM throughout.

With `COC(=O)C1(C(=O)OC)Cc2ccc(OC)cc2C2=C1C(=O)c1ccccc1C2=O`, the TGI was > 47.9 µM in [1]; 30.9 µM in assay [2]; 25.2 µM in assay [3]; 50.4 µM in assay [4]; 8.53 µM in assay [5]; 4.37 µM in assay [6]. The TGI was 26.3 µM in assay [7]; 4.34 µM in assay [8]; 3.52 µM in [9]; 21.9 µM in [10]; 8.89 µM in assay [11]; > 28.4 µM in assay [12]. For the same molecule, the TGI in [19] was 3.69 µM; in [13], 3.43 µM; in assay [14], 14.4 µM; in [15] it was > 100 µM; in assay [16] it was 16.9 µM; in [17], 33.4 µM. The molecule further yielded a TGI in assay [18] of 7.15 µM.

With `Cc1ccc(S(=O)(=O)n2cc(-c3cc(C(F)(F)F)ccn3)c3cc(Br)ccc32)cc1`, the TGI was 36.3 µM in assay [1]; 51.8 µM in assay [2]; > 100 µM in [3]; 41.3 µM in [4]; > 100 µM in assay [6]; 52.7 µM in assay [7]. Also, the TGI was 46.5 µM in assay [8]; > 100 µM in assay [9]; 31.1 µM in [10]; > 100 µM in assay [12]; 30.7 µM in assay [19]; 29.7 µM in assay [13]. Besides, the TGI was 88 µM in assay [14]; > 100 µM in assay [15]; > 100 µM in [16]; 44.8 µM in [17]; > 100 µM in assay [18].

As to `CCc1c2c([nH]c(=S)c1C#N)CCC2`, the TGI in [1], in assay [2], in assay [3], in [4], in assay [5] and in assay [6] was > 100 µM throughout. Moreover, the TGI in assay [7], in assay [8], in [9], in assay [10], in assay [11] and in assay [12] was > 100 µM throughout. Also, the TGI in assay [19], in assay [13], in assay [15], in assay [16], in assay [17] and in assay [18] was > 100 µM in each case.

`O=S1(=O)N=C(SCc2ccccc2)N(c2ccccc2)c2ccncc21`: the TGI in assay [1] is > 100 µM; in assay [2], > 100 µM; in assay [3] it was > 100 µM; in assay [4], 83.4 µM; in assay [6] it was > 100 µM; in [7] it was > 100 µM. Moreover, the TGI in [8] is > 100 µM; in [9] it was > 100 µM; in assay [10] it was > 100 µM; in [11], 56.3 µM; in assay [12], 91.1 µM; in assay [19], > 100 µM. Further, the TGI in [13], in assay [14], in assay [15], in assay [16], in [17] and in assay [18] was > 100 µM in each case.

For `CCOC(=O)/C(C#N)=C\c1ccc(N(CCC(=O)O)CCC(=O)O)c(I)c1`, the TGI in assay [1], in assay [2], in [3], in assay [4], in assay [5] and in [6] was > 10 µM throughout. Besides, the TGI in [7], in assay [8], in assay [9], in assay [10], in [11] and in assay [12] was > 10 µM each time. Moreover, the TGI in assay [13], in assay [14], in assay [15], in assay [16], in assay [17] and in assay [18] was > 10 µM in each case.

Take `O=C(O)c1nc2cc(C(F)(F)F)ccc2nc1Nc1ccc(F)cc1`: the TGI in assay [1] is 66 µM; in [2], > 100 µM; in [4], 74.3 µM; in assay [5] it was 55.9 µM; in [6], > 100 µM; in assay [7] it was 50.9 µM. The TGI was 70.8 µM in assay [8]; > 100 µM in assay [9]; 38.2 µM in [10]; 75.4 µM in assay [11]; > 100 µM in assay [12]; 49.8 µM in [19]. Also, the TGI in assay [15] is 55 µM; in assay [16] it was 68.8 µM; in [17] it was > 100 µM; in [18], 60.2 µM.
